The text below walks through data of ChEMBL document CHEMBL1148405, “Prediction of ligand binding affinity and orientation of xenoestrogens to the estrogen receptor by molecular dynamics simulations and the linear interaction energy method” (J Med Chem, 2004).

The target of the experiment is Estrogen receptor (Ovis aries, UniProt P49885+Q9TU15). Kind of experiment: Displacement of [3H]-estradiol (E2) from sheep uterine estrogen receptor. (In general: Loss of bound radioactivity is the signal in a displacement assay; it reports binding, not function.)

The structures appear in SMILES notation.

`Oc1ccc(C2COc3cc(O)c(O)cc3C2)cc1` (stereo not given) displayed a Kd of 0.000011 M l-1.

As for `Oc1ccc2c(ccc3c4ccccc4ccc23)c1O`, the Kd is on record as 8.8e-7 M l-1.

`CC(=O)C1CCC2C3CCC4=CC(O)CCC4(C)C3CCC12C` (stereo not given): the Kd is > 0.0003 M l-1.

As for `Oc1ccc2ccc3c4ccccc4ccc3c2c1`, the Kd is given as 4e-6 M l-1.

`Brc1ccccc1-c1ccccc1Br` returned a Kd of 0.00016 M l-1.

Take `Brc1ccc(-c2ccc(Br)cc2)cc1`: the Kd was > 0.0003 M l-1.

Consider `CCC1Cc2cc(O)ccc2C2=C1c1ccc(O)cc1CC2CC` (stereo not given), for which the Kd was found to be 3e-9 M l-1.

Molecule `O=c1c(-c2ccc(O)cc2)coc2cc(O)ccc12` [DAIDZEIN] yielded a Kd of 5.9e-6 M l-1.

On to `Oc1ccc2ccc3c4ccccc4cc4ccc1c2c43`, for which the Kd was determined as 1.1e-6 M l-1.

With `Oc1ccc2c(cc3ccc4cccc5ccc2c3c45)c1O`, the Kd stood at 0.000014 M l-1.
